The results in this text go back to a melting point compilation (Tetko et al.; mined from patent text by program, amines drawn as free bases though some values may be those of a salt).

One may read the melting point as the temperature of the solid-liquid transition.

`O=C1C(=O)c2ccccc2C2=C1SCC1(CCN(Cc3ccc(F)cc3)CC1)O2`: the melting point lay within 104 to 106 °C.

Take `CCOCc1nc2c(N)nc(C)c(C)c2n1CC(C)C`: the melting point lay within 110 to 112 °C. To `C=CCN(CC=C)CC1Oc2c(cc(C)c3[nH]c(=O)ccc23)C1CF` (centres undefined) belongs 68 to 71 °C. To `CC(C)COc1c(-c2ccc(S(N)(=O)=O)cc2)cnn(-c2ccc(F)cc2)c1=O` belongs 132 to 136 °C; to `NNC1=NC(=O)C(=Cc2cccc(-c3cc(F)c(O)c(C45CC6CC(CC(C6)C4)C5)c3)c2)S1`, 303 to 308 °C. Under `O=c1c2cc(Cl)ccc2ccc2ncccc12` stands 140 to 142 °C; under `NCCSC(c1ccccc1)c1ccccc1`, 74 °C; under `COc1cc2ncnc(N3CCc4ccc(C(C)C)cc43)c2cc1OC`, 128 to 129 °C. Take `Cc1nc(C)c(C(=O)CBr)[nH]1`: the melting point was in the range of 128 to 132 °C. Under `COC(CCC(C)C1CCC2C3C(OC(C)=O)CC4CC(OC(C)=O)CCC4(C)C3CC(=O)C12C)=NNS(=O)(=O)c1ccc(C)cc1` (centres undefined) stands 146 to 147 °C. To `C=CCOC(=O)NCc1ccc(C(=O)O)cc1` belongs 175 to 177 °C; to `CN(C)c1ccc(C2(CNC(=O)Nc3c(F)cc(F)cc3CCc3cc(C(C)(C)C)c(O)c(C(C)(C)C)c3)CCCC2)cc1`, 165 to 166 °C; to `CSC(C(=O)c1cc(-c2ccccc2)on1)N1CCCCC1` (centres undefined), 113 to 115 °C.

As to `COc1cc(OC)c2ccsc2c1`, the melting point was in the range of 78 to 80 °C. To `O=C(Nc1nnn(CC(F)(F)F)n1)C(c1ccccc1)c1ccccc1` belongs 146 to 148 °C. Under `COC(=O)C1(n2c(=O)c3ccccc3n(CCCCBr)c2=O)CCCC1` stands 96 to 98 °C.

With `O=C(c1ccc(-c2ccc(=O)[nH]n2)cc1)N1CCC[C@H]1CN1CCCC1`, the melting point was in the range of 62 to 66 °C. Under `Cn1c(=O)n(CCC[C@@H](NS(=O)(=O)c2ccc(-c3ccccc3)cc2)C(=O)NO)c(=O)c2ccccc21` stands 202 to 203 °C; under `CC(=O)OCC(C)(C(=O)OC(C)(C)C)C(=O)c1ccccc1` (centres undefined), 95 to 97 °C; under `CC(=O)Oc1ccc([C@@H]2SC(C)(C)[C@H](C(=O)O)N2C(C)=O)cc1`, 199 to 201 °C. Under `COc1ccc(CN2C(=O)[C@H](CO)[C@H]2S(=O)(=O)C(C)(C)C)c(OC)c1` stands 124 to 125 °C.

`CC(=O)N1CCN(CC(=O)Nc2ccc3[nH]c(=O)c4cccc5c4c3c2C5)CC1` came in with a melting point of 155 to 157 °C. `COC(=O)n1nnnc1-c1cnc2ccccn2c1=O` registered a melting point of 182 to 183 °C.

The compound `Cc1nc(C(C)C)c(Sc2cccc(Cl)c2)[nH]1` registered a melting point of 91 to 94 °C.

The compound `CC(C)NCC(O)COc1ccccc1-c1ccc(=O)[nH]n1` (centres undefined) registered a melting point of 150 to 152 °C.

The compound `CCOC(=O)C1CCc2c(c(C)nn2C)C1=O` (centres undefined) registered a melting point of 76.5 to 79 °C. Under `COc1ccc(C(=NO)c2ccccc2F)c(O)c1Cl` stands 184 to 186 °C; under `CCOCc1nc2c(N)nc(C)c(C)c2n1CCOCc1ccncc1`, 143 to 145 °C; under `CC1NC(=O)N(c2ccc(F)c(Cl)c2)C1=O` (centres undefined), 174 to 176 °C. Under `CCN1CN(c2cccc(C(F)(F)F)c2)c2ncccc2C1=O` stands 108 to 109 °C; under `CNC(=O)c1ccc(C(=O)OC)cc1N`, 167 to 168 °C. `COCCOc1cc2ncnc(NC3=CC(=O)C4(Cc5ccccc5)OC4C3=O)c2cc1OC` (centres undefined) came in with a melting point of 104 to 108 °C. To `COc1ccc2c(c1)CCC1C3CC4OCCOC4C3(C)CC(=O)C21C` (centres undefined) belongs 142 to 145 °C; to `Clc1nc(Cl)c2[nH]nnc2n1`, more than 260 °C. Under `CN(CC1OCCO1)c1nccc(Oc2ccc(NC(=O)c3cc(F)cc(N4CCCCC4)c3)c3ccccc23)n1` stands 125 to 127 °C; under `O=C(Nc1cccnc1)N1CCN(c2nccc(-c3cc(F)cc(F)c3)n2)CC1`, 231 to 232 °C.

In turn, `O=C(CN1CCCC1=O)NCc1cccc(CNC(=O)CN2CCCC2=O)n1` yielded a melting point of 149 °C. Turning to `CN(C)C=Nc1c(Cl)cc(N=Cc2ccccc2F)cc1Cl`, the melting point was in the range of 79 to 81 °C. `COc1ccc(C(O)(c2ccc3c(c2)C(c2cccc(Cl)c2)Nc2nnnn2-3)c2cncn2C)cc1` (centres undefined) returned a melting point of 220 °C.

For the compound `Cc1c2c(c(C)c3c1OC(C)(CI)C3)N(C=O)C(C)(C)C2` (centres undefined), the melting point lay within 124 to 126 °C. To `CC(C)(C)OC(=O)NCC1=C(CC(=O)O)CCCC1` belongs 118 to 119 °C; to `Cc1ccccc1C(CCC(=O)O)Oc1cc(OCc2cccc(C(=O)O)c2)ccc1[N+](=O)[O-]` (racemic), 85 to 87 °C. In turn, `CC(=O)C(CC=Cc1ccccc1Cl)(CCC(=O)O)c1ccccc1` (centres undefined) came in with a melting point of 95 to 110 °C. Turning to `Cn1cc(C(=O)NCc2ccc(Cl)cc2)c(=O)c2cc(CCCO)sc21`, the melting point lay in the range of 197 to 198 °C.

In turn, `COc1cc(Nc2c(C#N)cnc3cc(OC)c(Br)cc23)c(Cl)cc1Cl` came in with a melting point of 256 to 257 °C. Under `COc1ccc(-c2nc(CNC(=O)c3ccc4n3Cc3ccccc3N(C(=O)c3ccc(-c5ccccc5C)c(C)c3)C4)no2)cc1` stands 133 to 135 °C. With `Cc1cccc(-c2[nH]c(CC(C)C)nc2-c2cccc(-c3ccc(C(=O)NC4CCOCC4)cc3)c2)n1`, the melting point is 126 to 129 °C. To `Cc1ccc(-c2n[nH]c3ccccc23)cc1` belongs 106 to 107 °C.

Compound `CC(=O)Nc1ccc(OCC(=O)NC2CCN(Cc3ccc(Cl)c(Cl)c3)CC2)cc1` returned a melting point of 177 to 178 °C. `CCC(=O)Nc1cccc2c1C1(COc3cc4c(cc31)OCCO4)C(=O)N2C` (centres undefined) returned a melting point of 224 to 226 °C.

Consider `COc1cccc(Sc2c(O)c3ccc(Cl)cc3[nH]c2=O)c1`, for which the melting point lay within 199 to 200 °C. Under `Clc1cc(-c2c(-c3ccccc3)nn3ccccc23)ccn1` stands 167 to 168 °C; under `Cc1cccc(CC(=O)O)c1OCCCc1cn(-c2ccc(Br)cn2)nc1C(C)(C)C`, 62 to 63 °C. The compound `CC(O)(C1CCC(Oc2ncnc3ccccc23)CC1)C(F)(F)F` (centres undefined) came in with a melting point of 159 to 160 °C. Take `CC(C)(C)OC(=O)NC1CCN(CCO)CC1`: the melting point came out at 66 °C. To `CCc1cc(CCCOc2c(C)cc(C#N)cc2C)on1` belongs 50 to 51 °C; to `O=C(O)CCCCCCC1=C(C=Cc2ccccc2)C(=O)CC1`, 118 to 120 °C; to `CN(c1ncc(Br)cn1)[C@H]1CC[C@H](C#CCO)CC1`, 156 to 157 °C. As to `C=CC1CC1(C(=O)OC)C(=O)OCc1ccco1` (centres undefined), the melting point was in the range of 67.5 to 68.5 °C. To `CCN(CC)C(C)CN1c2cc(Cl)ccc2S[C@H]2[C@@H](O)[C@H](O)[C@@H](CO)O[C@H]21` (some centres undefined) belongs 185 to 188 °C; to `CNC(=O)CC=C(CC(C)C)C(=O)O`, 120 to 122 °C. Under `Nc1cccc2c1sc1c(Nc3cccc(Br)c3)ncnc12` stands 216 to 217 °C; under `COc1ccc(OC)c2c1CCC(NC(C)=O)C2` (centres undefined), 156 to 158 °C; under `C=CCOc1ccc(C(=O)C#Cc2c[nH]c3ccccc23)c(O)c1`, 228 to 230 °C. In turn, `Cc1nc(N2CCc3ccccc3CC2)c(C#N)c(=O)n1OC(C)C` registered a melting point of 127 to 128 °C.

`O=C(O)c1nc2c(=O)[nH]c3cc(C(F)(F)F)ccc3n2c1CP(=O)(O)O`: the melting point was more than 250 °C. To `CCCCCCCCCCCCCCOc1ccc(CNc2ccccc2)cc1` belongs 58 to 59 °C; to `Cc1ccc(-c2[nH]c(-c3cccnc3)nc2C(=O)Nc2nccs2)cc1`, more than 200 °C; to `COc1ccccc1C=Cc1nc2c([nH]1)c(=O)n(C)c(=O)n2C`, more than 300 °C.

The compound `CC(C)c1cccc(C(C)C)c1NC(=O)N(Cc1ccc(O)cc1)CC1(c2c[nH]cn2)CCCCC1` returned a melting point of 185 to 188 °C. For `Clc1cc(Cl)c2oc(Cl)nc2c1`, the melting point lay within 140 to 142 °C. Under `CCCCOc1ccc(NC(=O)c2cnc(C(=O)OC)c(OC)c2)cc1` stands 138 to 141 °C; under `COc1ccc2nc(Cl)nc(N(C)c3ccccc3)c2c1`, 133 to 134 °C. Under `CCOC(=O)C1=C(C)NC(C)=C(C(=O)OCC=CC=Cc2ccccc2)C1c1cccc([N+](=O)[O-])c1` (centres undefined) stands 143 to 147 °C; under `CN(C(=O)CCS(C)(=O)=O)c1nnc(-c2cccnc2)s1`, 199 to 201 °C. To `COc1ccc2c3c(c(=O)oc2c1)CN(Cc1ccc([N+](=O)[O-])cc1)CC3` belongs 176 to 178 °C. `Cc1c(SCCN2CCNCC2)ccnc1CSc1nc2ccccc2[nH]1` came in with a melting point of 166 to 168 °C. Under `CCN1CCc2cc(Nc3ncc(Cl)c(Nc4ccccc4C(=O)NC)n3)c(OC)cc2CC1` stands 195 to 211 °C; under `CCCCc1nc(Cl)c(C(=O)O)n1Cc1ccc2oc(-c3ccccc3C(=O)O)c(Br)c2c1`, 148 to 152 °C; under `O=C(N[C@H]1CC[C@H](CCN2CCN(c3nccc4c3CCO4)CC2)CC1)C1(O)CC1`, 174 °C. Under `O=C1C=C(Nc2cc(F)ccc2F)CCN1` stands 252 to 255 °C; under `O=C1c2ccccc2CCc2ccc(Cl)cc21`, 64 to 65 °C; under `O=C(NCCN1CCOc2ccc(O)cc21)c1ccco1`, 59 to 62 °C.

As to `Cn1c(=O)c2cccnc2n(C)c1=O`, the melting point fell in the range of 160 to 161 °C.

Consider `CN(C)c1ccc(C(=O)NC(=O)Nc2ccc3c(c2)NC(=O)/C3=C\c2ccc[nH]2)cc1`, for which the melting point was 285 to 290 °C. Under `CCc1cnc(N2CCN(c3nc(-c4ccccc4)nc4ccccc34)CC2)nc1` stands 137 to 138 °C. The compound `C=C(C)Cc1c(C)c(NC(C)=O)c(C)c(C)c1O` showed a melting point of 209 to 210 °C.

`Oc1ccc(-c2nc3ccccc3s2)cc1` registered a melting point of 108 to 109 °C. On to `CCCCN(C)C(=O)CSCCCCCOc1ccc(C2=C(c3ccccc3)CCCc3cc(O)ccc32)cc1`, for which the melting point was 112 to 114 °C.
